Experimental data as given in paper PMC12627232 (MedComm, 2025).

What was measured:
MDA-MB-231 cells [1] = experiment: Immunofluorescence of ac-H3; format: cell-based, human; conditions: 1 µM, 24 h
Protocol: Cells (10^5 cells per plate) were seeded in confocal dishes and incubated with drugs or DMSO (equal volume to experimental groups) for 24 h. The medium was removed, and cells were fixed with 4% polyoxymethylene solution for 30 min. The cells were treated with 0.2% Triton X‐100 for 10 min and 1% BSA for 1 h at room temperature. After that, cells were washed twice with TBST and incubated with anti‐H3 antibody (Cell Signal Technology; #13998) at 4°C overnight. When incubation finished, cells were washed five times with TBST and Cy3‐labeled goat anti‐rabbit IgG (Beyotime; #A0516) and DAPI solution (Solarbio) were added. After 1 h incubation and washing five times with TBST, cells were captured with Leica TCS SP8 super‐resolution laser scanning confocal microscope. The colocalization of ac‐H3 and DAPI was analyzed with ImageJ.

HDAC1 = target: T1, HDAC1 (Homo sapiens, UniProt Q13547); experiment: HDACs enzymatic assay HDAC1; format: biochemical
T1 construct: purchased BPS BIOSCIENCE INC 50051
T1 sequence (Q13547 whole entry): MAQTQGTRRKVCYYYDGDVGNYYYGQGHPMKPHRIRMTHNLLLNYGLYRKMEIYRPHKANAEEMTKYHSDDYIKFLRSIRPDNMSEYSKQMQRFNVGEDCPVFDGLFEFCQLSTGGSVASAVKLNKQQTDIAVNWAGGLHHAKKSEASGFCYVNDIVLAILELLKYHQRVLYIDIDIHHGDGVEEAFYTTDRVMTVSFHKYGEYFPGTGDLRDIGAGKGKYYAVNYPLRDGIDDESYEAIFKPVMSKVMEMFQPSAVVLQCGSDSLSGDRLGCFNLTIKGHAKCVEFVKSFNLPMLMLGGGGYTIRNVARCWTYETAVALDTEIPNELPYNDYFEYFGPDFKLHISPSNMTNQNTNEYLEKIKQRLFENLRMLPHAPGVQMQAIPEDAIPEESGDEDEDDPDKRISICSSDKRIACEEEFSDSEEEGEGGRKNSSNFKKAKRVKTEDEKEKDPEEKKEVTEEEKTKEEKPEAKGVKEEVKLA
Protocol: (§1) HDACs enzymatic assays were conducted according to our previous work. […] Substrates (Boc‐Lys(acetyl)‐AMC for HeLa nuclear extract, Ac‐Leu‐Gly‐Lys (Tfa)‐AMC for HDAC4, HDAC5, HDAC6, HDAC7, HDAC9, HDAC10, and HDAC11, Boc‐Lys(triflouroacetyl)‐AMC for HDAC8 and Ac‐Leu‐Gly‐Lys(acetyl)‐AMC for HDAC1, HDAC2, HDAC3) were added to the mixture. The blank group was set to no enzyme or drug but contains substrates and the control group was set to no drug but contains substrates and enzymes to each 96‐well plate. After 30 min of incubation at 37°C, the mixture was terminated with 1 mg/mL trypsin and 3 µM TSA. After another 30 min, the fluorescence intensity was measured using a Varioskan plate reader at 360/460 nm. […] The inhibition curves and IC50 values were simulated and calculated using the log(inhibitor) versus response (three parameters) mode in GraphPad Prism software.

HDAC6 = target: T2, HDAC6 (Homo sapiens, UniProt Q9UBN7); experiment: HDACs enzymatic assay HDAC6; format: biochemical; conditions: Class IIb
T2 construct: purchased BPS BIOSCIENCE Inc 50006
T2 sequence (Q9UBN7 whole entry): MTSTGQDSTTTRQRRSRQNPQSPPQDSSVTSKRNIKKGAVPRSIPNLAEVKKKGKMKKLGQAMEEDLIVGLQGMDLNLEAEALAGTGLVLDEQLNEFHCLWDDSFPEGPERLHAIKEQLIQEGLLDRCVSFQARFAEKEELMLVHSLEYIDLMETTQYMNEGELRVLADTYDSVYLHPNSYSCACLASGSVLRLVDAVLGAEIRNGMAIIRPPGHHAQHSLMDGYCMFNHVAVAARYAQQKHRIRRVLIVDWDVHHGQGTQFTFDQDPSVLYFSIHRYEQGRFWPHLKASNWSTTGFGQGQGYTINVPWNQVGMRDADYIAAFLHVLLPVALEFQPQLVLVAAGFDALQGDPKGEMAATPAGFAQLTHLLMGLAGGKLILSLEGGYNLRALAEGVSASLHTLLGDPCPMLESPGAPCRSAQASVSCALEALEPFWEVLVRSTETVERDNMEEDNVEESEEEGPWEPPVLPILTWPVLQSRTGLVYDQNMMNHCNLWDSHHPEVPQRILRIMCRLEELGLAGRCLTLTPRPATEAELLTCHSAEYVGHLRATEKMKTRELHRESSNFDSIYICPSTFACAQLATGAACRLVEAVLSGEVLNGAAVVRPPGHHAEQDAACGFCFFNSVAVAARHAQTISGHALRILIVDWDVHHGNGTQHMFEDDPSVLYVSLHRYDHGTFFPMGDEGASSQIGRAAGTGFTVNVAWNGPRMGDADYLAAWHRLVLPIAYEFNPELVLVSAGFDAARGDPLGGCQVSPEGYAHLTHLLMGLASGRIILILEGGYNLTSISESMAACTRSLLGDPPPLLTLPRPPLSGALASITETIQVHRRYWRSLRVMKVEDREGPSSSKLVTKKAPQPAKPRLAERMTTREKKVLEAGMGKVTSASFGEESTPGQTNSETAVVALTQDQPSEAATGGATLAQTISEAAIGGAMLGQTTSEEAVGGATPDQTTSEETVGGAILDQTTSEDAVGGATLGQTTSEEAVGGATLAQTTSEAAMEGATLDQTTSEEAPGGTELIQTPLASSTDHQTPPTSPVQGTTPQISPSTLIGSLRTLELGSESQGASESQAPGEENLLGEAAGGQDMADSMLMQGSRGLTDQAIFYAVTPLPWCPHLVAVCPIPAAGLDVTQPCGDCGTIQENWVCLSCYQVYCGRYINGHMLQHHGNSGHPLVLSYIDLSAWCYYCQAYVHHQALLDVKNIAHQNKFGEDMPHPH
Protocol: as §1

HDAC11 = target: T3, HDAC11 (Homo sapiens, UniProt Q96DB2); experiment: HDACs enzymatic assay HDAC11; format: biochemical; conditions: Class IV
T3 construct: purchased BPS BIOSCIENCE Inc 50011
T3 sequence (Q96DB2 whole entry): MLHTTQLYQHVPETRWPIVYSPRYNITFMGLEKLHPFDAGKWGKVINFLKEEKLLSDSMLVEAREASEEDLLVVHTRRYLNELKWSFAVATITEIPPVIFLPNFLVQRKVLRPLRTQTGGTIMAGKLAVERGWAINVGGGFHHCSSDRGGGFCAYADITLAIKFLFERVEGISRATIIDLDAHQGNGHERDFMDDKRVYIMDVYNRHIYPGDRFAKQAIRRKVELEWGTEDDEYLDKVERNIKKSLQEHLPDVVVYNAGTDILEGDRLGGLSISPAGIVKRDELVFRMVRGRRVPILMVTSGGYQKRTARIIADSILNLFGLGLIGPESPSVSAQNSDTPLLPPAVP
Protocol: as §1

MDA-MB-231 cells [2] = experiment: PD-L1 expression by flow cytometry; format: cell-based, human
Protocol: MDA‐MB‐231 cells in logarithmic growth phase were inoculated into six‐well plates with a cell density of 3 × 10^4 cells per well. After incubated at 37°C for 24 h, the original medium was abandoned and 900 µL complete medium was added, in which HitransG P infection solution was added. The virus dosage was calculated according to the formula and added to the cell. Virus volume = cell number × MOI value/virus titer. After incubated in the incubator at 37°C for 16 h, replace fresh complete medium. After that, the medium changed every 24 h. 48 h after infection, the cells were treated with or without compound at a concentration of 1 µM. After 48 h of culture, the fluorescence expression was observed under microscope, and the silencing effect of shHDAC1 was detected by Western Blot. The antibodies HDAC1 (Abmart; #T55154) and GAPDH (Beyotime; #AF2819) were used. The HDAC1‐siRNA lentivirus (shHDAC1) and negative control lentivirus (shCtrl) were obtained from Shanghai GeneChem Co., Ltd. (Shanghai, China).
Next, cells were digested into single‐cell suspension with trypsin, collected in a flow tube and washed with precooled 1 × PBS. Mouse serum was added to cells for 30 min at room temperature to block cells. Then the cells were incubated with anti‐human‐PD‐L1 (BioLegend; #329732) at 4°C for 1 h, and flow cytometry was performed with FACS Celesta (BD Biosciences, USA). […]

SMILES: O=C(CCCCCCNC(=O)c1cc(OCCc2ccccc2)c2ccccc2n1)NO [SDFZ-8]
- immunofluorescence intensities of ac-H3 (MDA-MB-231 cells [1]): notably stronger than those of cells treated with SAHA
- IC50 (HDAC1; Class I, mean ± SD of three): 0.4 ± 0.1 nM
- HDAC1 potency superior to SAHA (HDAC1; versus SAHA): 92 fold
- IC50 (HDAC6): 3.1 ± 0.5 nM
- IC50 (HDAC11): > 10000 nM
- PD-L1 expression (MDA-MB-231 cells [2]): increase
